The target in assay [1] is T1, thrombin (Homo sapiens, UniProt P00734). Description: Measurement of the thrombin inhibition in buffer. In kind it is biochemical. To be noted: human thrombin 0.06 nmol/l in Tris buffer pH 7.4, 22° C., substrate Boc-Asp(OBzl)-Pro-Arg-AMC; in some cases means of individual determinations. The procedure: To determine the thrombin inhibition of the substances listed above, a biochemical test system is constructed in which the conversion of a thrombin substrate is used for determining the enzymatic activity of human thrombin. Here, thrombin cleaves aminomethylcoumarin, which is measured fluorescently, from the peptic substrate. The determinations are carried out in microtitre plates.
Substances to be tested are dissolved in various concentrations in dimethyl sulphoxide and incubated for 15 min with human thrombin (0.06 nmol/l dissolved in 50 mmol/l of Tris buffer [C,C,C-tris(hydroxymethyl)aminomethane], 100 mmol/l of sodium chloride, 0.1% BSA [bovine serum albumin], pH 7.4) at 22° C. The substrate (5 μmol/l Boc-Asp(OBzl)-Pro-Arg-AMC from Bachem) is then added. After 30 min of incubation, the sample is excited at a wavelength of 360 nm and the emission is measured at 460 nm. The measured emissions of the test mixtures with test substance are compared to the control mixtures without test substance (only dimethyl sulphoxide instead of test substance in dimethyl sulphoxide) and IC50 values are calculated from the concentration/activity relationships. Representative activity data from this test are given in Table 1 below (in some cases as means of individual determinations): […]

Assay [2] concerns the target T1, thrombin. Briefly: Determination of the thrombin-inhibitory activity in plasma samples (ecarin-activated). In kind it is biochemical. To be noted: citrate plasma, ecarin activation, fluorogenic thrombin substrate; in some cases means of individual determinations. The procedure:
To determine the inhibition of thrombin in plasma samples, plasma […] is activated by ecarin. Thrombin activity and/or its inhibition by potential inhibitors is/are then measured fluorenscently by addition of a substrate.
The substances to be tested are dissolved in various concentrations in dimethyl sulphoxide and diluted with water. In white 96-well flat-bottomed plates, 20 μl of substance dilution are mixed with 20 μl of ecarin solution (ecarin reagent, from Sigma E-0504, final concentration 20 mU per reaction) in Ca buffer (200 mM Hepes+560 mM sodium chloride+10 mM calcium chloride+0.4% PEG) or with 20 μl of Ca buffer (as unstimulated control). Furthermore, 20 μl of fluorogenic thrombin substrate (from Bachem 1-1120, final concentration 50 μmol/1) and 20 μl of citrate plasma (from Octapharma) are added, and the mixture is homogenized well. The plate is measured in a SpectraFluorplus Reader using a 360 nm excitation filter and a 465 nm emission filter every minute over 20 minutes. […] Representative activity data from this test are given in Table 2 below (in some cases as means of individual determinations): […]

IC50 data for 17 compounds are collected here from patent publication US20160108027A1, “SUBSTITUTED BENZOXAZOLES” (BAYER PHARMA AKTIENGESELLSCHAFT, priority 2013, published 2016).

Take `COc1cc(C(=O)N2CC(C)OCC2C2CC(O)C2)cc2nc(NCc3cc(Cl)ccn3)oc12` (single isomer, unassigned) [Example 50, (2-{[(4-Chloropyridin-2-yl)methyl]amino}-7-methoxy-1,3-benzoxazol-5-yl) [5-(3-hydroxycyclobutyl)-2-methylmorpholin-4-yl]methanone]: the IC50 against thrombin [1] worked out at 12 nM; at thrombin [2], 28 nM.

In the case of `COc1cc(C(=O)N2CC(C)OCC2C2CC(O)C2)cc2nc(NCc3cc(Cl)ccn3)oc12` (single isomer, unassigned) [Example 51, (2-{[(4-Chloropyridin-2-yl)methyl]amino}-7-methoxy-1,3-benzoxazol-5-yl) [5-(3-hydroxycyclobutyl)-2-methylmorpholin-4-yl]methanone], the half-inhibitory concentration (IC50) at thrombin [1] came to 8 nM; on thrombin [2] it was 17 nM.

As for `COc1cc(C(=O)N2CC(C)OCC2C2CC(O)C2)cc2nc(NCc3cc(Cl)ccn3)oc12` (single isomer, unassigned) [Example 52, (2-{[(4-Chloropyridin-2-yl)methyl]amino}-7-methoxy-1,3-benzoxazol-5-yl) [5-(3-hydroxycyclobutyl)-2-methylmorpholin-4-yl]methanone], the IC50 against thrombin [1] was determined as 28 nM; against thrombin [2], 34 nM.

On to `COc1cc(C(=O)N2CC(C)OCC23CC(O)C3)cc2nc(NCc3cc(Cl)ccn3)oc12` (single isomer, unassigned) [Example 53, (2-{[(4-Chloropyridin-2-yl)methyl]amino}-7-methoxy-1,3-benzoxazol-5-yl)(2-hydroxy-7-methyl-8-oxa-5-azaspiro[3.5]non-5-yl)methanone], for which the IC50 against thrombin [1] worked out at 36 nM; on thrombin [2], 49 nM.

Regarding `COc1cc(C(=O)N2CC(C)OCC2CC(C)(C)O)cc2nc(NCc3cc(Cl)ccn3)oc12` (single isomer, unassigned) [Example 56, (2-{[(4-Chloropyridin-2-yl)methyl]amino}-7-methoxy-1,3-benzoxazol-5-yl) [5-(2-hydroxy-2-methylpropyl)-2-methylmorpholin-4-yl]methanone], the IC50 is 25 nM against thrombin [1] and 57 nM against thrombin [2].

Regarding `COc1cc(C(=O)N2CC(C)OCC2CC(C)(C)O)cc2nc(NCc3cc(Cl)ccn3)oc12` (single isomer, unassigned) [Example 57, (2-{[(4-Chloropyridin-2-yl)methyl]amino}-7-methoxy-1,3-benzoxazol-5-yl) [5-(2-hydroxy-2-methylpropyl)-2-methylmorpholin-4-yl]methanone], the figures for the IC50 at thrombin [1] and against thrombin [2] were 20 nM and 30 nM, respectively.

`COc1cc(C(=O)N2CC(C)(CCO)OCC2COC(F)F)cc2nc(NCc3cc(Cl)ccn3)oc12` (single isomer, unassigned) [Example 60, (2-{[(4-Chloropyridin-2-yl)methyl]amino}-7-methoxy-1,3-benzoxazol-5-yl){5-[(difluoromethoxy)methyl]-2-(2-hydroxyethyl)-2-methylmorpholin-4-yl}methanone]: the IC50 on thrombin [1] came out at 5.2 nM; against thrombin [2], 24 nM.

As to `COc1cc(C(=O)N2CCOC(C)(CC(C)O)C2)cc2nc(NCc3cc(Cl)ccn3)oc12` (single isomer, unassigned) [Example 61, (2-{[(4-Chloropyridin-2-yl)methyl]amino}-7-methoxy-1,3-benzoxazol-5-yl) [2-(2-hydroxypropyl)-2-methylmorpholin-4-yl]methanone], the results for the concentration for half-maximal inhibition (IC50) against thrombin [1] and against thrombin [2] were 24 nM and 100 nM, respectively.

In the case of `COc1cc(C(=O)N2CC(C)(C)OCC2CC(C)O)cc2nc(NCc3cc(Cl)ccn3)oc12` (single isomer, unassigned) [Example 62, (2-{[(4-Chloropyridin-2-yl)methyl]amino}-7-methoxy-1,3-benzoxazol-5-yl) [5-(2-hydroxypropyl)-2,2-dimethylmorpholin-4-yl]methanone], the IC50 on thrombin [1] is 68 nM; at thrombin [2] it was 107 nM.

With `COc1cc(C(=O)N2CC(C)(C)OCC2CC(C)O)cc2nc(NCc3cc(Cl)ccn3)oc12` (single isomer, unassigned) [Example 63, (2-{[(4-Chloropyridin-2-yl)methyl]amino}-7-methoxy-1,3-benzoxazol-5-yl) [5-(2-hydroxypropyl)-2,2-dimethylmorpholin-4-yl]methanone], the half-inhibitory concentration (IC50) on thrombin [1] was 11 nM; against thrombin [2] it was 20 nM.

As to `COc1cc(C(=O)N2CC(C)(C)OCC2CC(C)O)cc2nc(NCc3cc(Cl)ccn3)oc12` (single isomer, unassigned) [Example 65, (2-{[(4-Chloropyridin-2-yl)methyl]amino}-7-methoxy-1,3-benzoxazol-5-yl) [5-(2-hydroxypropyl)-2,2-dimethylmorpholin-4-yl]methanone], the results for the IC50 against thrombin [1] and at thrombin [2] were 24 nM and 61 nM, respectively.

`COc1cc(C(=O)N2CC(C)OCC2CC(C)O)cc2nc(NCc3cc(Cl)ccn3)oc12` (single isomer, unassigned) [Example 67, (2-{[(4-Chloropyridin-2-yl)methyl]amino}-7-methoxy-1,3-benzoxazol-5-yl) [5-(2-hydroxypropyl)-2-methylmorpholin-4-yl]methanone]: the IC50 is 16 nM against thrombin [1] and 38 nM at thrombin [2].

As to `COc1cc(C(=O)N2CC(C)OCC2CCO)cc2nc(NCc3cc(Cl)ccn3)oc12` (single isomer, unassigned) [Example 72, (2-{[(4-Chloropyridin-2-yl)methyl]amino}-7-methoxy-1,3-benzoxazol-5-yl) [5-(2-hydroxyethyl)-2-methylmorpholin-4-yl]methanone], the IC50 against thrombin [1] came to 29 nM; on thrombin [2] it was 37 nM.

Turning to `COCC1C(=O)N2CCC2CN1C(=O)c1cc(OC)c2oc(NCc3cc(Cl)ccn3)nc2c1` (single isomer, unassigned) [Example 74, 4-[(2-{[(4-Chloropyridin-2-yl)methyl]amino}-7-methoxy-1,3-benzoxazol-5-yl)carbonyl]-3-(methoxymethyl)-1,4-diazabicyclo[4.2.0]octan-2-one], the half-maximal inhibitory concentration (IC50) was determined as 32 nM on thrombin [1] and 56 nM at thrombin [2].

As to `COc1cc(C(=O)N2CC3CCN3C(=O)C2C)cc2nc(NCc3cc(Cl)ccn3)oc12` (single isomer, unassigned) [Example 75, 4-[(2-{[(4-Chloropyridin-2-yl)methyl]amino}-7-methoxy-1,3-benzoxazol-5-yl)carbonyl]-3-methyl-1,4-diazabicyclo[4.2.0]octan-2-one], the IC50 against thrombin [1] worked out at 32 nM; against thrombin [2], 48 nM.

For the compound `COc1cc(C(=O)N2CC3(CC3)NC(=O)C2C)cc2nc(NCc3cc(Cl)ccn3)oc12` (single isomer, unassigned) [Example 77, 7-[(2-{[(4-Chloropyridin-2-yl)methyl]amino}-7-methoxy-1,3-benzoxazol-5-yl)carbonyl]-6-methyl-4,7-diazaspiro[2.5]octan-5-one], the IC50 on thrombin [1] was 14 nM; at thrombin [2] it was 23 nM.

As for `CCC1C(=O)NC2(CC2)CN1C(=O)c1cc(OC)c2oc(NCc3cc(Cl)ccn3)nc2c1` (single isomer, unassigned) [Example 79, 7-[(2-{[(4-Chloropyridin-2-yl)methyl]amino}-7-methoxy-1,3-benzoxazol-5-yl)carbonyl]-6-ethyl-4,7-diazaspiro[2.5]octan-5-one], the figures for the IC50 at thrombin [1] and against thrombin [2] were 4.5 nM and 14 nM, respectively.

As a reminder, the IC50 is the concentration needed to halve the response being measured. Lower therefore signals inhibition by little substance.
